Source: US20240360177A1, “PEPTIDES WITH ANTIMICROBIAL ACTIVITIES” (priority 2021, published 2024)
Converted amounts (≈) assume the structure as drawn. Where two headings read alike, the source gives them in different places. Non-standard residues stand in square brackets, D forms with d. Residues, ends and D or L forms follow the SMILES beside them. Aoc = NCCCCCCCC(=O)O; Ava = NCCCCC(=O)O; βAla = NCCC(=O)O

How the values were obtained:
[1] = tested on: Lomentospora prolificans
[2] = tested on: C. krusei; conditions: 24 h
[3] = in vitro; conditions: human, human serum, full strength
[4] = tested on: Paecilomyces variotii; conditions: 48 h
[5] = tested on: Scedosporium spp.; conditions: 72 h
[6] = tested on: C. auris; conditions: 24 h
[7] = tested on: C. neoformans; conditions: 72 h
[8] = tested on: C. parapsilosis; conditions: 24 h
[9] = tested on: C. gattii; conditions: 72 h
[10] = Acute toxicity in CD-1 mice; conditions: both sexes, mouse, in vivo
Experimental: Acute toxicity and subacute toxicity of ACPs were tested in CD-1 mice. In the acute toxicity study, groups of CD-1 male or female mice were administered single intravenous or intraperitoneal escalating doses (n=2-3 per dose) of the peptides dissolved in normal saline for injection or in phosphate buffered saline. The intravenous dose was administered via tail vein with a slow push over 15-20 seconds. Doses were escalated based on tolerability.

[11] = tested on: C. glabrata; conditions: 24 h
[12] = tested on: Fusarium spp.; conditions: 48 h
[13] = in vitro; conditions: human, EC50 cytotoxicity in HepG2, intracellular ATP assay
[14] = tested on: Coccidioides species; conditions: 48-72 hrs, >50% inhibition
[15] = tested on: C. albicans; conditions: 24 h
[16] = tested on: C. tropicalis; conditions: 24 h
[17] = tested on: Rhizopus arrhizus; conditions: 24 h
[18] = tested on: C. dubliniensis; conditions: 24 h
[19] = tested on: Candida spp.
[20] = tested on: Filamentous Fungi
[21] = tested on: Cryptococcus spp.
[22] = mice
[23] = tested on: Pseudomonas aeruginosa ATCC 27853; assay type: cell-based
[24] = tested on: Staphylococcus aureus ATCC 29213; assay type: cell-based
[25] = tested on: Escherichia coli ATCC 25922; assay type: cell-based
[26] = Subacute toxicity in CD-1 mice; assay type: in vivo; conditions: daily IP for 7 days
Experimental: In the subacute toxicity study, groups of CD-1 male or female mice were administered seven consecutive daily intraperitoneal doses (n=3 per dose) of the peptides (SEQ ID NO: 7, SEQ ID NO: 29, SEQ ID NO: 53) dissolved in normal saline for injection. Each peptide was evaluated at 2 to 3 dose levels ranging from 2.5 to 7.5 mg/kg/day. Mice were weighed at least once daily and observed at least twice daily for any abnormal findings and determination of overall health. At 24 hrs after the last dose, mice were humanely euthanized, with blood collected through cardiac puncture into K2EDTA microtainers to assess hematological parameters. All three peptides were tolerated at the highest dose evaluated (7.5 mg/kg/day) for 7 days.

Structure (SMILES)	MIC Range Lomentospora prolificans [1]	MIC C. krusei [2]	remaining at 2 h, 5 μM [3]	MIC Range Scedosporium spp. [5]	MIC C. auris [6]	MIC C. neoformans [7]	MIC C. parapsilosis [8]	MIC C. gattii [9]	MIC C. glabrata [11]	MIC Range Fusarium spp. [12]	EC50 [13]	MIC C. albicans [15]	MIC C. tropicalis [16]	MIC C. dubliniensis [18]	Activity at 24 h MIC50 against Candida spp. [19]	Activity at 24 h MIC90 against Candida spp. [19]	Activity at 48 h MIC50 against Candida spp. [19]	Activity at 48 h MIC90 against Candida spp. [19]	MIC Range Cryptococcus spp. [21]	also measured
N=C(N)NCCC[C@@H](N)C(=O)N[C@@H](CCCNC(=N)N)C(=O)N[C@H](CCCNC(=N)N)C(=O)NCCC(=O)N[C@H](CCCNC(=N)N)C(=O)N[C@@H](CCCNC(=N)N)C(=O)N[C@H](CCCNC(=N)N)C(=O)NCCC(=O)N[C@H](CCCNC(=N)N)C(=O)N[C@@H](CCCNC(=N)N)C(=O)N[C@H](CCCNC(=N)N)C(=O)N[C@@H](CCCNC(=N)N)C(=O)NCCC(=O)N[C@H](CCCNC(=N)N)C(=O)N[C@@H](CCCNC(=N)N)C(=O)N[C@H](CCCNC(=N)N)C(=O)N[C@@H](CCCNC(=N)N)C(=O)O [SEQ ID NO: 8, rRr-(Apr)-rRr-(Apr)-rRrR-(Apr)-rRrR] (H-[dR]R[dR][βAla][dR]R[dR][βAla][dR]R[dR]R[βAla][dR]R[dR]R-OH)	≤0.12 µg/mL	0.5 µg/mL (≈ 0.207 µM)	~100%	≤0.12 µg/mL	4 µg/mL (≈ 1.65 µM)	0.5 µg/mL (≈ 0.207 µM)	0.25 µg/mL (≈ 0.103 µM)	0.25 µg/mL (≈ 0.103 µM)	0.5 µg/mL (≈ 0.207 µM)	0.25 to 0.5 µg/mL	> 300 µg/mL	0.5 µg/mL (≈ 0.207 µM)	0.25 µg/mL (≈ 0.103 µM)	0.25 µg/mL (≈ 0.103 µM)	–	–	–	–	–	MIC Range Paecilomyces variotii [4]: 0.25 µg/mL (≈ 0.103 µM); MTD ([10]; single IP dose, read-out: Tolerated single intraperitoneal dose): 10 to 15 mg/kg; MTD ([10]; single IV dose via tail vein, read-out: Tolerated single intravenous dose): 5 to 7.5 mg/kg; MIC Range Coccidioides species ([14]; N = 3 strains): 0.25 to 0.5 µg/mL; MIC Range Rhizopus arrhizus [17]: 2 to 32 µg/mL
N=C(N)NCCC[C@@H](N)C(=O)N[C@@H](CCCNC(=N)N)C(=O)N[C@H](CCCNC(=N)N)C(=O)NCCCCC(=O)N[C@H](CCCNC(=N)N)C(=O)N[C@@H](CCCNC(=N)N)C(=O)N[C@H](CCCNC(=N)N)C(=O)NCCCCC(=O)N[C@H](CCCNC(=N)N)C(=O)N[C@@H](CCCNC(=N)N)C(=O)N[C@H](CCCNC(=N)N)C(=O)NCCCCC(=O)N[C@H](CCCNC(=N)N)C(=O)N[C@@H](CCCNC(=N)N)C(=O)N[C@H](CCCNC(=N)N)C(N)=O [SEQ ID NO: 22, rRr-(Ava)-rRr-(Ava)-rRr-(Ava)-rRr-NH2] (H-[dR]R[dR][Ava][dR]R[dR][Ava][dR]R[dR][Ava][dR]R[dR]-NH2)	2 µg/mL (≈ 0.914 µM)	1 µg/mL (≈ 0.457 µM)	–	1 to 2 µg/mL	2 µg/mL (≈ 0.914 µM)	1 µg/mL (≈ 0.457 µM)	0.25 µg/mL (≈ 0.114 µM)	0.5 µg/mL (≈ 0.228 µM)	0.5 µg/mL (≈ 0.228 µM)	0.5 to 16 µg/mL	–	0.5 µg/mL (≈ 0.228 µM)	0.5 µg/mL (≈ 0.228 µM)	0.25 µg/mL (≈ 0.114 µM)	1 µg/mL	8 µg/mL	2 µg/mL	32 µg/mL	0.5 to 1 µg/mL	MIC Range Filamentous Fungi [20]: 0.5 to 16 µg/mL
N=C(N)NCCC[C@@H](N)C(=O)N[C@@H](CCCNC(=N)N)C(=O)N[C@H](CCCNC(=N)N)C(=O)NCCCCC(=O)N[C@H](CCCNC(=N)N)C(=O)N[C@@H](CCCNC(=N)N)C(=O)NCCCCC(=O)N[C@H](CCCNC(=N)N)C(=O)N[C@@H](CCCNC(=N)N)C(=O)NCCCCC(=O)N[C@H](CCCNC(=N)N)C(=O)N[C@@H](CCCNC(=N)N)C(=O)N[C@H](CCCNC(=N)N)C(N)=O [SEQ ID NO: 28, rRr-(Ava)-rR-(Ava)-rR-(Ava)-rRr-NH2] (H-[dR]R[dR][Ava][dR]R[Ava][dR]R[Ava][dR]R[dR]-NH2)	32 µg/mL (≈ 17.1 µM)	8 µg/mL (≈ 4.26 µM)	–	4 µg/mL (≈ 2.13 µM)	>32 µg/mL	8 µg/mL (≈ 4.26 µM)	0.5 µg/mL (≈ 0.266 µM)	4 µg/mL (≈ 2.13 µM)	4 µg/mL (≈ 2.13 µM)	–	–	2 µg/mL (≈ 1.07 µM)	1 µg/mL (≈ 0.533 µM)	1 µg/mL (≈ 0.533 µM)	8 µg/mL	>32 µg/mL	8 µg/mL	>32 µg/mL	2 to 8 µg/mL	–
N=C(N)NCCC[C@@H](N)C(=O)N[C@@H](CCCNC(=N)N)C(=O)N[C@H](CCCNC(=N)N)C(=O)NCCCCCCCC(=O)N[C@H](CCCNC(=N)N)C(=O)N[C@@H](CCCNC(=N)N)C(=O)N[C@H](CCCNC(=N)N)C(=O)NCCCCCCCC(=O)N[C@H](CCCNC(=N)N)C(=O)N[C@@H](CCCNC(=N)N)C(=O)N[C@H](CCCNC(=N)N)C(=O)N[C@@H](CCCNC(=N)N)C(=O)NCCCCCCCC(=O)N[C@H](CCCNC(=N)N)C(=O)N[C@@H](CCCNC(=N)N)C(=O)N[C@H](CCCNC(=N)N)C(=O)N[C@@H](CCCNC(=N)N)C(N)=O [SEQ ID NO: 29, rRr-(Aoa)-rRr-(Aoa)-rRrR-(Aoa)-rRrR-NH2] (H-[dR]R[dR][Aoc][dR]R[dR][Aoc][dR]R[dR]R[Aoc][dR]R[dR]R-NH2)	0.5 µg/mL (≈ 0.19 µM)	0.5 µg/mL (≈ 0.19 µM)	~100%	0.5 µg/mL (≈ 0.19 µM)	0.5 µg/mL (≈ 0.19 µM)	0.5 µg/mL (≈ 0.19 µM)	0.5 µg/mL (≈ 0.19 µM)	0.5 µg/mL (≈ 0.19 µM)	0.5 µg/mL (≈ 0.19 µM)	0.5 µg/mL (≈ 0.19 µM)	> 300 µg/mL	1 µg/mL (≈ 0.381 µM)	0.5 µg/mL (≈ 0.19 µM)	0.5 µg/mL (≈ 0.19 µM)	–	–	–	–	–	Kidney to Plasma Concentration Ratio Day 7 ([22]; 6 hrs post dose of 7.5 mg/kg IP once daily, Day 7, mean ± SD, n = 3): 361 ± 322; Kidney to Plasma Concentration Ratio Day 1 ([22]; 6 hrs post dose of 7.5 mg/kg IP, Day 1, mean ± SD, n = 3): 236 ± 233; Day 1 AUC ratio, kidney to plasma ([22]; IP 7.5 mg/kg, Day 1): 158; MIC Pseudomonas aeruginosa [23]: 32 µg/mL (≈ 12.2 µM); MIC Range Coccidioides species ([14]; N = 10 strains): 0.06 to 0.25 µg/mL; MIC Staphylococcus aureus [24]: 16 µg/mL (≈ 6.09 µM); MIC Escherichia coli [25]: 16 µg/mL (≈ 6.09 µM); Tolerated dose (highest dose evaluated) [26]: 7.5 mg/kg/day; Clinical or hematological adverse effects ([26]; up to 7.5 mg/kg/day): No significant clinical or hematological adverse effects were observed
N=C(N)NCCC[C@@H](N)C(=O)N[C@@H](CCCNC(=N)N)C(=O)N[C@H](CCCNC(=N)N)C(=O)N1CCC[C@H]1C(=O)N[C@H](CCCNC(=N)N)C(=O)N[C@@H](CCCNC(=N)N)C(=O)N1CCC[C@H]1C(=O)N[C@H](CCCNC(=N)N)C(=O)N[C@@H](CCCNC(=N)N)C(=O)N1CCC[C@H]1C(=O)N[C@H](CCCNC(=N)N)C(=O)N[C@@H](CCCNC(=N)N)C(=O)N[C@H](CCCNC(=N)N)C(N)=O [SEQ ID NO: 70, rRr-P-rR-P-rR-P-rRr-NH2] (H-[dR]R[dR]P[dR]RP[dR]RP[dR]R[dR]-NH2)	32 µg/mL (≈ 17.1 µM)	2 µg/mL (≈ 1.07 µM)	–	8 µg/mL (≈ 4.28 µM)	>32 µg/mL	8 µg/mL (≈ 4.28 µM)	2 µg/mL (≈ 1.07 µM)	4 µg/mL (≈ 2.14 µM)	4 µg/mL (≈ 2.14 µM)	–	–	0.5 µg/mL (≈ 0.267 µM)	1 µg/mL (≈ 0.535 µM)	1 µg/mL (≈ 0.535 µM)	4 µg/mL	>32 µg/mL	8 µg/mL	>32 µg/mL	1 to 8 µg/mL	–
